Measured values from patent publication US12492186B2, “Bicyclic heterocyclic compounds useful as IRAK4 inhibitors” (BRISTOL-MYERS SQUIBB COMPANY, priority 2019, dated 2025).

Tests used:
Human whole blood = experiment: IRAK4 Whole Blood Assay (IL-6 levels after stimulation with TLR2 agonist lipoteichoic acid); assay type: cell-based; details: 10 μg/mL lipoteichoic acid, 5 hours
Description: Human whole blood containing the anti-coagulant ACD-A was plated in 384-well plate (25 μL/well) and incubated with compounds for 60 minutes at 37° C. in a 5% CO2 incubator. The blood was stimulated with a TLR2 agonist, 10 μg/mL final concentration of lipoteichoic acid (Invivogen, San Diego, CA) in 25 μL RPMI (Gibco) for 5 hours in a 5% CO2 incubator. At the end of the incubation, plates were centrifuged at 2300 rpm for 5 minutes. Supernatants were harvested and analyzed for IL-6 levels by Flow Cytometry beads assay (BD Biosciences, San Jose, CA).

IRAK4 = IRAK4 (Homo sapiens (Human), UniProt Q9NWZ3); experiment: IRAK4 Inhibition Assay; assay type: biochemical; details: ATP 500 μM; IRAK4 0.6 nM; 60 min room temperature; Caliper LABCHIP 3000
IRAK4, sequence (Q9NWZ3 whole entry, species assumed): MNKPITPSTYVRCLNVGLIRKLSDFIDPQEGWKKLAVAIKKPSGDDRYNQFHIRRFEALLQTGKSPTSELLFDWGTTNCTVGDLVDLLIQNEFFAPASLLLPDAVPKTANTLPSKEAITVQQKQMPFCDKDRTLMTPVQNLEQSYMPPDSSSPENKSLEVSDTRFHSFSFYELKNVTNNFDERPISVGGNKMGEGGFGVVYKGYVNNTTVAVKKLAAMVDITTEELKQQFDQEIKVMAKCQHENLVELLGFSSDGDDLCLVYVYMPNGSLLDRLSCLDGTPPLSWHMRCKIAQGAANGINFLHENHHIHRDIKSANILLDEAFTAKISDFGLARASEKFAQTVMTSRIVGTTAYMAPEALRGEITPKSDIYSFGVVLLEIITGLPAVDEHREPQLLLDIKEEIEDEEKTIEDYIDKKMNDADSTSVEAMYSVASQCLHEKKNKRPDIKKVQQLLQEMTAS

Row | Structure (SMILES) | EC50 (Human whole blood) [nM] | IC50 (IRAK4) [nM]
1 | CC(C)Nc1c(C(=O)NCCN2CCOCC2)cnc2ccc(-c3cn[nH]c3)cc12 [Example 44, 4-(isopropylamino)-N-(2-morpholinoethyl)-6-(1H-pyrazol-4-yl)quinoline-3-carboxamide] | 1190 | 9.7
2 | CC(C)Nc1c(C(=O)NCCC(F)F)cnc2ccc(-c3cn[nH]c3)cc12 [Example 45, N-(3,3-difluoropropyl)-4-(isopropylamino)-6-(1H-pyrazol-4-yl)quinoline-3-carboxamide] | 350 | 9.1
3 | CC(=O)N[C@H]1C[C@H](NC(=O)c2cnc3ccc(-c4cn[nH]c4)cc3c2NC(C)C)C1 [Example 46, N-((1r,3r)-3-acetamidocyclobutyl)-4-(isopropylamino)-6-(1H-pyrazol-4-yl)quinoline-3-carboxamide] | 2100 | 6.6
4 | COC(=O)N[C@H]1C[C@H](NC(=O)c2cnc3ccc(-c4cn[nH]c4)cc3c2NC(C)C)C1 [Example 47, methyl ((1r,3r)-3-(4-(isopropylamino)-6-(1H-pyrazol-4-yl)quinoline-3-carboxamido)cyclobutyl)carbamate] | 868 | 9.1
5 | CC(C)Nc1c(C(=O)NCCC2CC2)cnc2ccc(-c3cn[nH]c3)cc12 [Example 51, N-(2-cyclopropylethyl)-4-(isopropylamino)-6-(1H-pyrazol-4-yl)quinoline-3-carboxamide] | 699 | 4.5
6 | Cc1cc2ncc(C(=O)NCCC(C)(C)O)c(NC(C)C)c2cc1-c1cn[nH]c1 [Example 59, N-(3-hydroxy-3-methylbutyl)-4-(isopropylamino)-7-methyl-6-(1H-pyrazol-4-yl)quinoline-3-carboxamide] | 4740 | 16
7 | CC(C)Nc1c(C(=O)NC2CCN(Cc3ccc(F)cc3)CC2)cnc2ccc(-c3cn[nH]c3)cc12 [Example 76, N-(1-(4-fluorobenzyl)piperidin-4-yl)-4-(isopropylamino)-6-(1H-pyrazol-4-yl)quinoline-3-carboxamide] | 1690 | 12.3
8 | CC(=O)N1CCC(NC(=O)c2cnc3ccc(-c4cn[nH]c4)cc3c2NC(C)C)CC1 [Example 77, N-(1-acetylpiperidin-4-yl)-4-(isopropylamino)-6-(1H-pyrazol-4-yl)quinoline-3-carboxamide] | 788 | 9.9
9 | CC(C)Nc1c(C(=O)NC2CCN(Cc3ccncc3)CC2)cnc2ccc(-c3cn[nH]c3)cc12 [Example 78, 4-(isopropylamino)-6-(1H-pyrazol-4-yl)-N-(1-(pyridin-4-ylmethyl)piperidin-4-yl)quinoline-3-carboxamide] | 1360 | 16.8
10 | CC(C)Nc1c(C(=O)NC2CCN(S(C)(=O)=O)CC2)cnc2ccc(-c3cn[nH]c3)cc12 [Example 79, 4-(isopropylamino)-N-(1-(methylsulfonyl)piperidin-4-yl)-6-(1H-pyrazol-4-yl) quinoline-3-carboxamide] | 618 | 5.7
11 | CCOC(=O)N1CCC(NC(=O)c2cnc3ccc(-c4cn[nH]c4)cc3c2NC(C)C)CC1 [Example 80, ethyl 4-(4-(isopropylamino)-6-(1H-pyrazol-4-yl)quinoline-3-carboxamido)piperidine-1-carboxylate] | 1320 | 13
12 | CC(C)Nc1c(C(=O)NC2CCN(C(=O)C3CC3)CC2)cnc2ccc(-c3cn[nH]c3)cc12 [Example 81, N-(1-(cyclopropanecarbonyl)piperidin-4-yl)-4-(isopropylamino)-6-(1H-pyrazol-4-yl)quinoline-3-carboxamide] | 1400 | 11.7
13 | CC(C)Nc1c(C(=O)NC2CCN(C(=O)N3CCOCC3)CC2)cnc2ccc(-c3cn[nH]c3)cc12 [Example 82, 4-(isopropylamino)-N-(1-(morpholine-4-carbonyl)piperidin-4-yl)-6-(1H-pyrazol-4-yl) quinoline-3-carboxamide] | 455 | 9
14 | CC(C)Nc1c(C(=O)NC2CCN(S(=O)(=O)c3cccnc3)CC2)cnc2ccc(-c3cn[nH]c3)cc12 [Example 84, 4-(isopropylamino)-6-(1H-pyrazol-4-yl)-N-(1-(pyridin-3-ylsulfonyl)piperidin-4-yl)quinoline-3-carboxamide] | 1170 | 17.1
15 | CC(C)Nc1c(C(=O)NCC2CCS(=O)(=O)C2)cnc2ccc(-c3cn[nH]c3)cc12 (stereo not shown) [Example 87, N-((1,1-dioxidotetrahydrothiophen-3-yl)methyl)-4-(isopropylamino)-6-(1H-pyrazol-4-yl)quinoline-3-carboxamide] | 458 | 6.8
16 | CC(C)Nc1c(C(=O)NCCS(C)(=O)=O)cnc2ccc(-c3cn[nH]c3)cc12 [Example 88, 4-(isopropylamino)-N-(2-(methylsulfonyl)ethyl)-6-(1H-pyrazol-4-yl)quinoline-3-carboxamide] | 1520 | 18.5

Row | Structure (SMILES) | EC50 (Human whole blood) [nM] | IC50 (IRAK4) [nM]
17 | CC(C)Nc1c(C(=O)NCCN2CCS(=O)(=O)CC2)cnc2ccc(-c3cn[nH]c3)cc12 [Example 94, N-(2-(1,1-dioxidothiomorpholino)ethyl)-4-(isopropylamino)-6-(1H-pyrazol-4-yl) quinoline-3-carboxamide] | 2240 | 9.5
18 | CC(C)Nc1c(C(=O)NCCCNS(C)(=O)=O)cnc2ccc(-c3cn[nH]c3)cc12 [Example 95, 4-(isopropylamino)-N-(3-(methylsulfonamido)propyl)-6-(1H-pyrazol-4-yl)quinoline-3-carboxamide] | 3220 | 10.5
19 | CC(C)Nc1c(C(=O)NCCC2CCCN2)cnc2ccc(-c3cn[nH]c3)cc12 (stereo not shown) [Example 96, 4-(isopropylamino)-6-(1H-pyrazol-4-yl)-N-(2-(pyrrolidin-2-yl)ethyl)quinoline-3-carboxamide] | 1280 | 11.4
20 | CC(C)Nc1c(C(=O)NCCC2CCNC2)cnc2ccc(-c3cn[nH]c3)cc12 (stereo not shown) [Example 97, 4-(isopropylamino)-6-(1H-pyrazol-4-yl)-N-(2-(pyrrolidin-3-yl)ethyl)quinoline-3-carboxamide] | 2080 | 9.7
21 | CC(C)Nc1c(C(=O)NCCc2cccnc2)cnc2ccc(-c3cn[nH]c3)cc12 [Example 98, 4-(isopropylamino)-6-(1H-pyrazol-4-yl)-N-(2-(pyridin-3-yl)ethyl)quinoline-3-carboxamide] | 607 | 4.2
22 | CC(C)Nc1c(C(=O)N[C@H]2CC[C@H](n3ccnn3)CC2)cnc2ccc(-c3cn[nH]c3)cc12 [Example 101, N-((1r,4r)-4-(1H-1,2,3-triazol-1-yl)cyclohexyl)-4-(isopropylamino)-6-(1H-pyrazol-4-yl)quinoline-3-carboxamide] | 447 | 4.1
23 | CC(C)Nc1c(C(=O)NCCCn2ccnc2)cnc2ccc(-c3cn[nH]c3)cc12 [Example 103, N-(3-(1H-imidazol-1-yl)propyl)-4-(isopropylamino)-6-(1H-pyrazol-4-yl)quinoline-3-carboxamide] | 2720 | 11
24 | CC(C)Nc1c(C(=O)NCC2CCS(=O)(=O)CC2)cnc2ccc(-c3cn[nH]c3)cc12 [Example 107, N-((1,1-dioxidotetrahydro-2H-thiopyran-4-yl)methyl)-4-(isopropylamino)-6-(1H-pyrazol-4-yl)quinoline-3-carboxamide] | 3770 | 21
25 | CC(C)Nc1c(C(=O)NCCc2ccncc2)cnc2ccc(-c3cn[nH]c3)cc12 [Example 109, 4-(isopropylamino)-6-(1H-pyrazol-4-yl)-N-(2-(pyridin-4-yl)ethyl)quinoline-3-carboxamide] | 2370 | 4.4
26 | CC(C)Nc1c(C(=O)NCCC2CCS(=O)(=O)CC2)cnc2ccc(-c3cn[nH]c3)cc12 [Example 112, N-(2-(1,1-dioxidotetrahydro-2H-thiopyran-4-yl)ethyl)-4-(isopropylamino)-6-(1H-pyrazol-4-yl) quinoline-3-carboxamide] | 2730 | 4.3
27 | CC(C)Nc1c(C(=O)NCCCc2csc(N)n2)cnc2ccc(-c3cn[nH]c3)cc12 [Example 113, N-(3-(2-aminothiazol-4-yl)propyl)-4-(isopropylamino)-6-(1H-pyrazol-4-yl)quinoline-3-carboxamide] | 1630 | 5.8
28 | CC(C)Nc1c(C(=O)NCCCc2ccncc2)cnc2ccc(-c3cn[nH]c3)cc12 [Example 114, 4-(isopropylamino)-6-(1H-pyrazol-4-yl)-N-(3-(pyridin-4-yl)propyl)quinoline-3-carboxamide] | 1740 | 9.1
29 | O=C(NCCc1cccnc1)c1cnc2ccc(-c3cn[nH]c3)cc2c1NC1CC1 [Example 115, 4-(cyclopropylamino)-6-(1H-pyrazol-4-yl)-N-(2-(pyridin-3-yl)ethyl)quinoline-3-carboxamide] | 1100 | 4.4
30 | O=C(NCCN1CCS(=O)(=O)CC1)c1cnc2ccc(-c3cn[nH]c3)cc2c1NC1CC1 [Example 117, 4-(cyclopropylamino)-N-(2-(1,1-dioxidothiomorpholino)ethyl)-6-(1H-pyrazol-4-yl)quinoline-3-carboxamide] | 5190 | 4.9
31 | O=C(NCCCc1ccncc1)c1cnc2ccc(-c3cn[nH]c3)cc2c1NC1CC1 [Example 118, 4-(cyclopropylamino)-6-(1H-pyrazol-4-yl)-N-(3-(pyridin-4-yl)propyl)quinoline-3-carboxamide] | 3150 | 10.8
32 | CC1(Nc2c(C(=O)NCCN3CCS(=O)(=O)CC3)cnc3ccc(-c4cn[nH]c4)cc23)CC1 [Example 119, N-(2-(1,1-dioxidothiomorpholino)ethyl)-4-((1-methylcyclopropyl)amino)-6-(1H-pyrazol-4-yl)quinoline-3-carboxamide] | 1180 | 3.2
